Results as given in US20180186796A1, “COMPOUNDS AND USES THEREOF” (LEAD DISCOVERY SIENA S.R.L., priority 2014, published 2018).
Values after ≈ are worked out from the molar mass of the structure shown.

Columns and labels:
[1] = In vivo pharmacokinetics / biodistribution; set-up: species or system mice; conditions: administered compound itself, 50 mg/Kg i.p., BALB/C mice
Protocol: The animal protocols used were reviewed and approved by the Animal Care and Ethics Committee of the Universita{grave over ( )} degli Studi di Siena, Italy. Male BALB/C mice (weight 20-30 g) were obtained from Charles River (Milan, Italy). […] The blood, previously heparinized, was centrifuged at 4000 rpm for 20 minutes to separate the plasma fraction and then 500 μl were collected in a test tube. […] Samples were centrifuged at 4000 rpm for 20 minutes, the supernatant was recovered, dried under vacuum and analyzed by LC-UV-MS. Brain was homogenized using a glass/glass Potter-Elvehjem homogenizer in presence of Tris-HCl buffer (50 mM) and compounds were recovered using 7 mL of ACN then treated as previously described for blood samples.

human fibroblast wi38 = test: TGF-beta induced myofibroblast differentiation, Western blot; format: cell-based; conditions: Si306 1 μM
Protocol: FIG. 17. Western blot analysis of PDGFR-beta and alpha-SMA expression.
Total cell lysates were obtained by incubating cells in a lysis buffer containing 1% triton, 0.1% SDS, 2 mM CaCl2, 10 mg/ml orthovanadate, and 1× protease inhibitors cocktail (Sigma, St. Louis, […]., USA). Protein content was determined using the Protein Assay Kit 2 (Bio-Rad Laboratories, Hercules, Calif., USA). Sixty micrograms of proteins were electrophoresed in 10% SDS-polyacrylamide gel. After electrophoresis gels were placed onto Trans-Blot Turbo mini nitrocellulose transfer pack and transferred using Trans-Bolt Turbo Transfer System (Bio-Rad Laboratories, Hercules, Calif., USA). The membrane was incubated with 1 μg/ml primary antibody and then with appropriate horseradish peroxidase-conjugated secondary antibodies. Primary antibodies β-actin, PDGFR-beta, alpha-SMA were purchased from Cell Signaling Technology; Protein bands were visualized using a chemiluminescent detection system (Thermo Scientific, Rockford, Ill., USA) and signals were digitally acquired by Chemidoc XRS system (Bio-Rad Laboratories).

U87 cells [2] = test: Orthotopic mouse model of GBM; format: in vivo, mice; conditions: 50 mg/kg three times per week for 4 weeks
Protocol: Survival curves (days) of orthotopic mouse model of GBM.
Male CD1 nude mice (Charles River, Milan, Italy) were maintained under the guidelines established by University of L'Aquila, Medical School and Science and Technology School Board Regulations, complying with the Italian government regulations for the use of laboratory animals. Before any invasive manipulation, mice were anesthetized with a mixture of ketamine (25 mg/ml)/xylazine (5 mg/ml). Tumor grafts were obtained by injecting with a Hamilton syringe mounted on a stereotactic instrument, 2*10^3 U87 cells resuspended in 2 microL PBS (David Kopf Instruments, CA, USA). The cells were injected after the exposition of periosteal cranic site and the drimming of a 1 mm diameter hole localized at 4 mm from striatum and with a depth of 4 mm. The wound was treated with antibiotics and was surgically sutured.

[3] = tested on: SH-SY5Y neuroblastoma cells; test: SH-SY5Y xenograft mouse model; format: in vivo, mice
Protocol: Male CD1 nude mice (Charles River, Milan, Italy) were maintained under the guidelines established by the inventors' Institution (University of L'Aquila, Medical School and Science and Technology School Board Regulations, complying with the Italian government regulation n. 116 Jan. 27 1992 for the use of laboratory animals). Before any invasive manipulation, mice were anesthetized with a mixture of ketamine (25 mg/mL)/xylazine (5 mg/mL). Tumor grafts were obtained by injecting s.c. 1×10^6 SH-SY5Y cells in 100 μL of 12 mg/mL Matrigel (Becton Dickinson, Franklin Lakes, N.J., USA). Tumor growth was monitored daily by measuring the average tumor diameter. The tumor volume was expressed in mm^3 according to the formula 4/3πr^3.

U87 cells [4] = test: Low density growth assay; format: cell-based, human; conditions: 4Gy plus 1 μM or 10 μM Si306, 15 days
Protocol: U87 cells capacity for growth at clonal density, was evaluated by plating cells at density of 10 cells/cm^2 in 10% fetal bovine supplemented DMEM. After 2 weeks of culture, adherent cells were fixed with cold methanol, washed with PBS/BSA and air-dried. Adherent cells were stained with 0.5% crystal violet for 15 minutes at room temperature. The stained colonies were photomicrographed and analyzed by number and size with the public domain software ImageJ (by Wayne Rasband, http://rsb.info.nih.gov/ij/). Mean and SD values of at least three different experiments are shown.

U251 cells = test: Proliferation assay on U251 cells; format: cell-based, human
Protocol: U87 and U251 cells were purchased from European Collection of Cell Cultures (ECACC, Salisbury, UK) and were cultured in DMEM medium supplemented with 10% Foetal Bovine Serum. In order to determine antiproliferative effect of drugs tumor cells were seeded at 2×10^5 cells/ml density and treated with compounds at indicated concentrations. The cultures were maintained at 37° C. in 5% v/v CO2 for 72 h. Cell number and viability were evaluated by Trypan blue exclusion test. Viable cells were expressed as percentage respect to cells treated with vehicle (=100%). Mean and SD values of at least three different experiments are shown.
U87 and U251 cells were purchased from European Collection of Cell Cultures (ECACC, Salisbury, UK) and were cultured in DMEM medium supplemented with 10% Foetal Bovine Serum. In order to determine antiproliferative effect of drugs tumor cells were seeded at 2×10^5 cells/ml density and treated with compounds at indicated concentrations. The cultures were maintained at 37° C. in 5% v/v CO2 for 72 h. Cell number and viability were evaluated by Trypan blue exclusion test. Viable cells were expressed as percentage respect to untreated cells (=100%/). Mean and SD values of at least three different experiments are shown.

[5] = PAMPA, intestinal (GI) permeability; conditions: Membrane Retention, GI
Protocol: Donor solution (0.5 mM) was prepared by diluting 1 mM dimethylsulfoxide (DMSO) compound stock solution using phosphate buffer (pH 7.4, 0.025 M). […] Donor solution (150 μL) was added to each well of the filter plate. To each well of the acceptor plate were added 300 μL of solution (50% DMSO in phosphate buffer). All compounds were tested in three different plates on different days. The sandwich was incubated for 5 h at room temperature under gentle shaking. After the incubation time, the plates were separated, and samples were taken from both receiver and donor sides and analyzed using LC with UV detection at 280 nm.
Permeability (Papp) for PAMPA was calculated according to the following equation, obtained from Wohnsland and Faller^27 and Sugano et al.^28 equation with some modification in order to obtain permeability values in cm s^−1,
Drug concentration is estimated by using the peak area integration. Membrane retentions (%) were calculated according to the following equation:
where r is the ratio between drug concentration in the acceptor and equilibrium concentration, D, A, and Eq represented drug concentration in the donor, acceptor and equilibrium solution, respectively.
Donor solution of tested compounds (0.5 mM) was prepared by diluting 1 mM dimethylsulfoxide (DMSO) compound stock solution using phosphate buffer (pH 7.4, 25 mM). […] Donor solution (150 μL) was added to each well of the filter plate. To each well of the acceptor plate were added 300 μL of solution (50% DMSO in phosphate buffer). Compounds was tested in three different plates on different days. The sandwich was incubated for 5 h at room temperature under gentle shaking.
Permeability (Papp) for PAMPA was calculated according to the following equation, obtained from Wohnsland and Faller and Sugano et al.^27, 28.
Drug concentration is estimated by using the peak area integration. Membrane retention (%) was calculated according to the following equation:

SH-SY5Y cells = test: Cell cycle analysis; format: cell-based, human
Protocol: Cells (SH-SY5Y) were seeded in 60-mm petri dishes at a density of 3×10^5. After treatment and subsequent incubation for 24 h at 37° C. and 5% CO2 in humidified atmosphere, harvested cells were washed and fixed overnight with 70% ethanol. Then, ethanol was removed by centrifugation and the cells resuspended in PBS, stained with 50 μg/mL propidium iodide (PI) at 4° C. for 30 min in the dark. Stained cells were analyzed by Tali image based cytometer (Life Technologies, Carlsbad, Calif., USA) counting 20 fields for sample and exported fcs raw data were elaborated by Flowing software (v. 2.5.0, by Perttu Terho, University of Turku, Finland).

Recombinant human Abl = molecular target: T1, Recombinant human Abl (Homo sapiens, UniProt P00519); test: Enzymatic assay on isolated Abl; format: biochemical; conditions: mean of at least two experiments
T1 construct: purchased Upstate
T1 sequence (P00519 whole entry): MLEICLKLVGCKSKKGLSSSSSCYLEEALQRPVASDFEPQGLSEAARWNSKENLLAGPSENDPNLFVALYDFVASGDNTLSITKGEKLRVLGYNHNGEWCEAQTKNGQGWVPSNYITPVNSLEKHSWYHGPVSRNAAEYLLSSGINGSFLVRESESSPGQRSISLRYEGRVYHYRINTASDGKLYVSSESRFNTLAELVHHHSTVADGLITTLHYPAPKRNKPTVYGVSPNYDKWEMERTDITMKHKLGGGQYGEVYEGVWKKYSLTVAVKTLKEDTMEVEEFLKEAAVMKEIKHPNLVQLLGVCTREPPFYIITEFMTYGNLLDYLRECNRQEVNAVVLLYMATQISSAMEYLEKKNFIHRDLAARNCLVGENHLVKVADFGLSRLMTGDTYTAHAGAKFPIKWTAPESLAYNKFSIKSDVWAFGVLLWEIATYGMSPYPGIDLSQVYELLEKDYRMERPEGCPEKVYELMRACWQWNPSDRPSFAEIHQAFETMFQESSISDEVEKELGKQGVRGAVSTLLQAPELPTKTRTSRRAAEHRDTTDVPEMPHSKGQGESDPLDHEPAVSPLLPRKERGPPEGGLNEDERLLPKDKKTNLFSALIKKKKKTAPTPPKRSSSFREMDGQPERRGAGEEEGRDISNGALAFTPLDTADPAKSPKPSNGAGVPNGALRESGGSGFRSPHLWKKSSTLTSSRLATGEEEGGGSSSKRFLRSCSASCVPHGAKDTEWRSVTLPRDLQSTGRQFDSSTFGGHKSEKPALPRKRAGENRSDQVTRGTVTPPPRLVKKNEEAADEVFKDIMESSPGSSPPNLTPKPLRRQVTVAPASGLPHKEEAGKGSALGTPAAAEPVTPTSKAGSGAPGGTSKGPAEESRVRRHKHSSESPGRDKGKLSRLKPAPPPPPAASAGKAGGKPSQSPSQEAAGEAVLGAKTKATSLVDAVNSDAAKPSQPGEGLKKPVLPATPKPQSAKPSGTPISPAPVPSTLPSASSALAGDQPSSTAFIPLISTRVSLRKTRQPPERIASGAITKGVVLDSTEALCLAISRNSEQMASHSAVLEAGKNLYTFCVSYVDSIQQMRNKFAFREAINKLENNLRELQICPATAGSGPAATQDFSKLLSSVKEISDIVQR
Protocol: Recombinant human Abl was purchased from Upstate.
Activity was measured in a filter binding assay using an Abl specific peptide substrate (Abtide, Upstate).

hBMEC endothelial cells = test: Sprouting assay; format: cell-based; conditions: 0.5 μM and 1 μM, 24 h
Protocol: The brain microvascular endothelial cell line hBMEC was purchased from ScienCell Research Laboratory (Carlsbad, Calif., USA). HBMEC cells were suspended in culture medium containing 20% methylcellulose, seeded at a density of 1000 cells/well, into nonadhesive 96 well plate and cultured at 37° C. (5% CO2, 100% humidity). Under these conditions, suspended endothelial cells (EC) form spontaneously within 4 h a single cell aggregate known as spheroid. Spheroids were harvested within 24 h and used for in gel sprouting angiogenesis experiments. Briefly, spheroids were seeded in micro-slides coated with Matrigel and images were observed after 24 h, captured by an inverted microscope and analysed with the NIH Image J analysis system. For statistical analysis, number of sprouts per spheroid, with a minimum of 10 spheroids for each treatment, was considered.

Protocol for Water solubility assay: Each solid compound (1 mg) was added to 1 mL of water. […] The suspensions were filtered through a 0.45 μm nylon filter (Acrodisc), and the solubilized compound determined by LC-MS-MS assay. For each compound the determination was performed in triplicate. […] The flow rate was 0.2 mL min-^−1 and injection volume was 5 μL. The instrument operated in positive mode and parameters were: detector 1850 V, drying gas pressure 25.0 psi, desolvation temperature 300.0° C., nebulizing gas 40.0 psi, needle 5000 V and shield 600 V. Nitrogen was used as nebulizer gas and drying gas.
Solid compound (1 mg) was added to 1 mL of water. […] The suspensions were filtered through a 0.45-μm nylon filter (Acrodisc), and the solubilised compound determined by LC-UV-MS assay. The determination was performed in triplicate.
Chromatographic analysis was performed with the method above reported and quantification of compounds was made by comparison with apposite calibration curves realized with standard solutions in methanol.

## ClC(Cn1ncc2c(Nc3cccc(Br)c3)nc(SCCN3CCOCC3)nc21)c1ccccc1 (stereo not shown) [Si306, N-(3-Bromophenyl)-1-(2-chloro-2-phenylethyl)-6-[(2-morpholin-4-ylethyl)thio]-1H-pyrazolo[3,4-d]pyrimidin-4-amine]
[1]; 30′
  Quantity of Compound, BLOOD: 10.2 ± 4.82 nmol of compound/g of tissue
[1]; 4 h
  Quantity of Compound, BLOOD: 2.6 ± 1.31 nmol of compound/g of tissue
[1]; 8 h
  Quantity of Compound, BLOOD: 2.4 ± 0.29 nmol of compound/g of tissue
[1]; 24 h
  Quantity of Compound, BLOOD: 1.1 ± 0.65 nmol of compound/g of tissue
  Quantity of Compound, BRAIN: 2.3 ± 0.70 nmol of compound/g of tissue
[1]; 15′
  Quantity of Compound, BRAIN: 0.3 ± 0.18 nmol of compound/g of tissue
Human fibroblast wi38
  expression of PDGFR and alpha-SMA downstream of TGF-beta: able to block the expression of PDGFR and alpha-SMA
U87 cells [2]
  survival of mice respect to control group: significant ability in prolonging survival
[3]; 50 mg/kg
  tumour growth inhibition: significantly inhibited
[3]; 50 mg/kg daily oral
  signs of distress or weight loss: did not shown signs of distress or weight loss
[3]; 50 mg/kg daily oral, 60 days
  reduction in mean tumor volume compared to placebo: more than 50%
U87 cells [4]
  number of colonies, combination with radiotherapy: reduced significantly the number of colonies
U251 cells; U251, 5 μM, 72 h
  reduction of the total cell number vs control: about 50%
U251 cells; U251, 72 h, 1 μM Si306 plus increasing mitomycin C
  antiproliferative effect in combination with mitomycin C: synergic antiproliferative effect
Water solubility assay; Table 6
  H2O Solubility: 3.7 µg/mL
Water solubility assay; Table 8, 20° C., 24 h
  H2O Sol.: 3.70 µg/mL
Water solubility assay; water, 20 °C, thermodynamic from solid
  solubility at 24 h: 6.61 µM (≈ 3.79 µg/mL)
[5]
  PAMPA GI (MR %): (46.1) %
SH-SY5Y cells; 10 μM
  apoptosis, treated cells: about 50%
SH-SY5Y cells; 0.1-10 μM, starting from 0.1 μM
  accumulation of cells in the G1 phase of cell cycle: significant and dose-dependent accumulation
Recombinant human Abl
  Ki: 0.12 µM
hBMEC endothelial cells
  angiogenesis, number of sprouts per spheroid: significant reduction of angiogenesis
